According to PubChem BioAssay AID1745844 (Carcinogenic Potency Database (CPDB), 2022):
The source made the active and inactive calls. No rule for the calls is given here.

System: rodent lifetime carcinogenesis bioassay, tumor incidence TD50
Test: chronic cancer bioassays in animals – CPDB, compiled studies (AID 1745844)

O=CNc1nc(-c2ccc([N+](=O)[O-])o2)cs1
TD50 (hamster, strain Syrian Golden, males, in feed, site: forestomach, lesion: squamous-cell papilloma, dosed 48 weeks, study length 70 weeks): 83.8 mg/kg/day | carcinogen call (hamster, strain Syrian Golden, males, in feed, site: urinary bladder, lesion: several types, types named in the paper, dosed 48 weeks, study length 70 weeks): positive | TD50 (hamster, strain Syrian Golden, males, in feed, site: urinary bladder, lesion: squamous-cell carcinoma, dosed 48 weeks, study length 70 weeks): 54 mg/kg/day | TD50 (mouse, strain Charles River CD1, females, in feed, site: any site (literature study), lesion: several types, types named in the paper, dosed 36 weeks, study length 68 weeks): 18.7 mg/kg/day | TD50 (mouse, strain Charles River CD1, females, in feed, site: lung, lesion: adenoma, dosed 36 weeks, study length 68 weeks): 1120 mg/kg/day | TD50 (mouse, strain Charles River CD1, females, in feed, site: urinary bladder, lesion: spindle-cell tumor, dosed 36 weeks, study length 68 weeks): 128 mg/kg/day | TD50 (mouse, strain Charles River CD1, females, in feed, site: urinary bladder, lesion: squamous-cell carcinoma, dosed 36 weeks, study length 68 weeks): 128 mg/kg/day | TD50 (mouse, strain Charles River CD1, females, in feed, site: urinary bladder, lesion: transitional-cell carcinoma, dosed 36 weeks, study length 68 weeks): 33.3 mg/kg/day | TD50 (mouse, strain Charles River CD1, males, in feed, site: any site (literature study), lesion: several types, types named in the paper, dosed 40 weeks, study length 77 weeks): 21.5 mg/kg/day | TD50 (mouse, strain Charles River CD1, males, in feed, site: urinary bladder, lesion: spindle-cell tumor, dosed 40 weeks, study length 77 weeks): 97.1 mg/kg/day | TD50 (mouse, strain Charles River CD1, males, in feed, site: urinary bladder, lesion: squamous-cell carcinoma, dosed 40 weeks, study length 77 weeks): 250 mg/kg/day | TD50 (mouse, strain Charles River CD1, males, in feed, site: urinary bladder, lesion: transitional-cell carcinoma, dosed 40 weeks, study length 77 weeks): 30.5 mg/kg/day | TD50 (mouse, strain NMRI, females, by gavage, site: any site (literature study), lesion: benign tumor, dosed 68 weeks, study length 75 weeks): 69.4 mg/kg/day | TD50 (mouse, strain NMRI, females, by gavage, site: any site (literature study), lesion: malignant tumor, dosed 68 weeks, study length 75 weeks): 59.5 mg/kg/day | TD50 (mouse, strain NMRI, females, by gavage, site: forestomach, lesion: papilloma, dosed 68 weeks, study length 75 weeks): 164 mg/kg/day | TD50 (mouse, strain NMRI, females, by gavage, site: forestomach, lesion: squamous-cell carcinoma, dosed 68 weeks, study length 75 weeks): 139 mg/kg/day | TD50 (mouse, strain NMRI, females, by gavage, site: liver, lesion: malignant tumor, dosed 68 weeks, study length 75 weeks): 2390 mg/kg/day | TD50 (mouse, strain NMRI, females, by gavage, site: stomach, glandular, lesion: malignant tumor, dosed 68 weeks, study length 75 weeks): 944 mg/kg/day | TD50 (mouse, strain Swiss, females, in feed, site: all sites, lesion: leukemia, dosed 33 weeks, study length 52 weeks): 47.6 mg/kg/day | TD50 (mouse, strain Swiss, females, in feed, site: all sites, lesion: leukemia, dosed 46 weeks, study length 53 weeks): 55.4 mg/kg/day | TD50 (mouse, strain Swiss, females, in feed, site: all sites, lesion: lymphocytic leukemia, dosed 46 weeks, study length 66 weeks): 78.3 mg/kg/day | TD50 (mouse, strain Swiss, females, in feed, site: forestomach, lesion: squamous-cell papilloma, dosed 46 weeks, study length 66 weeks): 235 mg/kg/day | TD50 (mouse, strain Swiss, females, in feed, site: lung, lesion: alveolar-cell adenoma, dosed 33 weeks, study length 52 weeks): 208 mg/kg/day | TD50 (mouse, strain Swiss, females, in feed, site: lung, lesion: alveolar-cell carcinoma, dosed 46 weeks, study length 66 weeks): 86.4 mg/kg/day | TD50 (mouse, strain Swiss, females, in feed, site: lung, lesion: carcinoma, dosed 46 weeks, study length 53 weeks): 163 mg/kg/day | TD50 (mouse, strain Swiss, females, in feed, site: urinary bladder, lesion: carcinoma, dosed 33 weeks, study length 52 weeks): 19.8 mg/kg/day | TD50 (mouse, strain Swiss, females, in feed, site: urinary bladder, lesion: one or several types, types not named, dosed 46 weeks, study length 53 weeks): 18.2 mg/kg/day | TD50 (mouse, strain Swiss, females, in feed, site: urinary bladder, lesion: transitional-cell carcinoma, dosed 46 weeks, study length 66 weeks): 7.72 mg/kg/day | TD50 (rat, strain Fischer 344, males, in feed, site: urinary bladder, lesion: carcinoma, dosed 30 weeks, study length 104 weeks): 3.18 mg/kg/day | TD50 (rat, strain Fischer 344, males, in feed, site: urinary bladder, lesion: papillary carcinoma, dosed 30 weeks, study length 52 weeks): 5.92 mg/kg/day | TD50 (rat, strain Fischer 344, males, in feed, site: urinary bladder, lesion: several types, types named in the paper, dosed 30 weeks, study length 52 weeks): 1.31 mg/kg/day | TD50 (rat, strain Fischer, males, in feed, site: liver, lesion: hyperplastic nodule, dosed 36 weeks, study length 74 weeks): 263 mg/kg/day | TD50 (rat, strain Fischer, males, in feed, site: urinary bladder, lesion: carcinoma, invasive, dosed 36 weeks, study length 74 weeks): 9.74 mg/kg/day | TD50 (rat, strain Fischer, males, in feed, site: urinary bladder, lesion: carcinoma, invasive, dosed 77 weeks, study length 77 weeks): 18.1 mg/kg/day | TD50 (rat, strain Fischer, males, in feed, site: urinary bladder, lesion: carcinoma, noninvasive, dosed 36 weeks, study length 74 weeks): 60.5 mg/kg/day | TD50 (rat, strain Fischer, males, in feed, site: urinary bladder, lesion: carcinoma, noninvasive, dosed 77 weeks, study length 77 weeks): 195 mg/kg/day | TD50 (rat, strain Fischer, males, in feed, site: urinary bladder, lesion: carcinoma, dosed 36 weeks, study length 74 weeks): 4.51 mg/kg/day | carcinogen call (rat, strain Fischer, males, in feed, site: urinary bladder, lesion: carcinoma, dosed 72 weeks, study length 72 weeks): positive | TD50 (rat, strain Fischer, males, in feed, site: urinary bladder, lesion: carcinoma, dosed 77 weeks, study length 77 weeks): 9.87 mg/kg/day | TD50 (rat, strain Sprague-Dawley, females, in feed, site: urinary bladder, lesion: papillary carcinoma, dosed 26 weeks, study length 70 weeks): 48.6 mg/kg/day | TD50 (rat, strain Sprague-Dawley, females, in feed, site: urinary bladder, lesion: papillary carcinoma, dosed 46 weeks, study length 70 weeks): 82.7 mg/kg/day | carcinogen call (rat, strain Sprague-Dawley, females, in feed, site: urinary bladder, lesion: several types, types named in the paper, dosed 26 weeks, study length 70 weeks): positive | TD50 (rat, strain Sprague-Dawley, females, in feed, site: urinary bladder, lesion: several types, types named in the paper, dosed 46 weeks, study length 63 weeks): 5.07 mg/kg/day | carcinogen call (rat, strain Sprague-Dawley, females, in feed, site: urinary bladder, lesion: several types, types named in the paper, dosed 46 weeks, study length 70 weeks): positive | carcinogen call (rat, strain Sprague-Dawley, females, in feed, site: urinary bladder, lesion: transitional-cell carcinoma, dosed 26 weeks, study length 70 weeks): positive | carcinogen call (rat, strain Sprague-Dawley, females, in feed, site: urinary bladder, lesion: transitional-cell carcinoma, dosed 46 weeks, study length 70 weeks): positive | carcinogen call (rat, strain Sprague-Dawley, males, in feed, site: urinary bladder, lesion: transitional-cell carcinoma, dosed 26 weeks, study length 52 weeks): positive | carcinogen call (rat, strain Sprague-Dawley, males, in feed, site: urinary bladder, lesion: transitional-cell carcinoma, dosed 46 weeks, study length 52 weeks): positive | carcinogen call (rat, strain Wistar, females, in feed, site: urinary bladder, lesion: transitional-cell carcinoma, dosed 34 weeks, study length 52 weeks): positive

NCCNc1cccc2ccccc12
carcinogen call (mouse, strain B6C3F1, females, in feed, site: any site (literature study), lesion: several types, types named in the paper, dosed 104 weeks, study length 106 weeks): negative (inactive) | TD50 (mouse, strain B6C3F1, females, in feed, site: liver, lesion: hepatocellular adenoma + hepatocellular carcinoma + neoplastic nodule, dosed 104 weeks, study length 106 weeks): 25600 mg/kg/day | TD50 (mouse, strain B6C3F1, females, in feed, site: lung, lesion: alveolar/bronchiolar adenoma + alveolar/bronchiolar carcinoma, dosed 104 weeks, study length 106 weeks): 4390 mg/kg/day | carcinogen call (mouse, strain B6C3F1, males, in feed, site: any site (literature study), lesion: several types, types named in the paper, dosed 104 weeks, study length 104 weeks): negative (inactive) | TD50 (rat, strain Fischer 344, females, in feed, site: liver, lesion: hepatocellular adenoma + hepatocellular carcinoma + neoplastic nodule, dosed 104 weeks, study length 107 weeks): 93.5 mg/kg/day | TD50 (rat, strain Fischer 344, females, in feed, site: liver, lesion: hepatocellular carcinoma + neoplastic nodule, dosed 104 weeks, study length 107 weeks): 93.5 mg/kg/day (inactive) | TD50 (rat, strain Fischer 344, males, in feed, site: any site (literature study), lesion: several types, types named in the paper, dosed 104 weeks, study length 107 weeks): 41.6 mg/kg/day (inactive)

N[C@@H](CC(=O)O)C(=O)O
TD50 (rat, strain F344/DuCrj, females, in drinking water, site: any site (literature study), lesion: several types, types named in the paper, dosed 100 weeks, study length 100 weeks): 8340 mg/kg/day (inactive) | carcinogen call (rat, strain F344/DuCrj, females, in drinking water, site: liver, lesion: one or several types, types not named, dosed 100 weeks, study length 100 weeks): negative (inactive) | TD50 (rat, strain F344/DuCrj, males, in drinking water, site: any site (literature study), lesion: several types, types named in the paper, dosed 100 weeks, study length 100 weeks): 2720 mg/kg/day (inactive) | carcinogen call (rat, strain F344/DuCrj, males, in drinking water, site: liver, lesion: one or several types, types not named, dosed 100 weeks, study length 100 weeks): negative (inactive)
